# Assay results from patent US20240173329A1, “BELVARAFENIB FOR USE IN TREATMENT OF BRAIN CANCERS” (Genentech, Inc., priority 2021, published 2024).
# Where two headings read alike, the source gives them in different places.
# Assay: Pharmacokinetic profile and brain distribution in rats after oral administration
# Type: in vivo, rats (SD)
# Conditions: for Kp / Cmax / Tmax / AUC(0-t) / MRT last / half-life / AUC(0-inf): rat
# Procedure: Example 2 evaluated pharmacokinetic profile and brain distribution of belvarafenib in rats after oral administration.
# The rat strain was SD supplied by Orient Bio Inc., Korea.
# The rats were kept in conventional animal lab cages for 5 days for acclimation before the start of the experiment. The cages were polysulfone 1291H (W425×D266×H185 mm, Techniplast, Italy). Three rats were housed in each cage at a temperature of 22±2° C., a relative humidity of 50±20%, a ventilation frequency of 10-15 times/h, a 12 hour light/dark cycle, a light intensity of 150-300 Lux, at least weekly cage replacement. The mice were fed Picolab Rodent diet (5053, Lab Diet, USA) with abundant tap water.
# The rats were dosed with belvarafenib dihydrochloride, 99.6% purity, that was stored at room temperature. Dosing was based on active ingredient free base and was corrected for assay and water content. The dosing vehicle was DMSO (10%), PEG 400 (50%), and deionized water (40%). Belvarafenib for dosing (169.51 mg) was dissolved in 86.93 mL of the vehicle for a final concentration of 1.950 mg/mL.
# In a single one day dosing regimen, rats were fasted overnight. The body weight of the rats was measured on the day of treatment, from which dosing volumes were set. […] The rats were fed 4 hours post-dose.
# Blood (0.3 mL) was collected from the abdominal artery at 0.5, 1, 2, 4, 7, 24, 48, and 72 hours after belvarafenib administration. Plasma was obtained by centrifugation at 12,000 rpm for 2 minutes (Eppendorf) and then harvested and stored at −20° C. (Panasonic, MDF-U334-PK) until analysis.
# After bloodletting of rats at each time point, the brain was collected immediately without perfusion. Brain tissue was washed one to two times with saline to remove surface blood. The brains were then trimmed. The collected brain tissue was accurately weighed and mixed with 4-fold saline based on brain weight (a final dilution factor of 5-fold). Each brain sample was then homogenized and placed in a 1.5 mL tube and stored at −20° C. (Panasonic, MDF-U334-PK) until analysis.
# Plasma and brain of untreated animals were similarly obtained for use as a blank matrix.
# Plasma and brain concentrations of belvarafenib determined by analysis using LC-MS/MS (Waters UPLC H-Class/Xevo TQ (Waters USA)).
# Pharmacokinetic parameters of belvarafenib were calculated from plasma and brain concentration-time data by a non-compartmental method using Phoenix™ WinNonlin 8.1 (Certara, USA). The peak plasma and brain concentration (Cmax) and the corresponding time (Tmax) were directly obtained from the raw data. The area under the plasma curve (AUClast) was obtained by linear-log trapezoidal summation. Other PK parameters such as AUC from dosing time extrapolated to infinity (AUCinf), half-life (t1/2) and mean residence time (MTRlast) were calculated using WinNonlin. The plasma and brain concentrations of belvarafenib were presented as MEAN±S.D. The brain to plasma (B/P) ratio of Belvarafenib was calculated by dividing AUClast in the brain by AUClast in the plasma.
# [1] = SD (Sprague-Dawley), oral 30 mg/kg, brain
# [2] = SD (Sprague-Dawley), oral 30 mg/kg, plasma
# [3] = male, SD, oral 15 mg/kg, plasma
smiles,measurement,setting,value
"Cc1ccc2c(Nc3cccc(Cl)c3F)nccc2c1NC(=O)c1csc2c(N)ncnc12 [Belvarafenib, 4-amino-N-(1-((3-chloro-2-fluorophenyl)amino)-6-methylisoquinolin-5-yl)thieno[3,2-d]pyrimidine-7-carboxamide]",Kp,"SD (Sprague-Dawley), oral 30 mg/kg, AUClast brain / AUClast plasma, read-out: B/P ratio",1.2
same,Cmax,[1],4880 ng/g
same,Tmax,[1],7 h
same,AUC(0-t),[2],98000 ng·h/mL
same,Cmax,[2],4150 ng/mL
same,Tmax,[2],7 h
same,Kp,"SD, oral 30 mg/kg, AUClast brain / AUClast plasma, read-out: B/P ratio",1.2
same,Tmax,"SD, oral 30 mg/kg, brain",4 h
same,Kp,"male, SD, brain/plasma, oral, 15 mg/kg, read-out: B/P",1.38
same,Kp,"male, SD, oral 15 mg/kg, AUClast brain / AUClast plasma, read-out: B/P ratio",1.38
same,Cmax,"male, SD, oral 15 mg/kg, brain",3910 ng/g
same,MRT last,"male, SD, oral 15 mg/kg, brain",15.5 h
same,Tmax,"male, SD, oral 15 mg/kg, brain",7 h
same,half-life,"male, SD, oral 15 mg/kg, brain",540 min
same,AUC(0-inf),[3],50600 ng·h/mL
same,AUC(0-t),[3],49400 ng·h/mL
same,Cmax,[3],2130 ng/mL
same,MRT last,[3],18 h
same,Tmax,[3],4 h
same,half-life,[3],750 min
same,AUC(0-inf),"male, SD, oral 30 mg/kg, plasma",100000 ng·h/mL
same,AUCinf,"oral 15 mg/kg, brain",68350.0 ng·h/g
same,AUClast,"oral 15 mg/kg, brain",67954.7 ng·h/g
same,AUCinf,"oral 30 mg/kg, brain",115222.3 ng·h/g
same,AUClast,"oral 30 mg/kg, brain",113670.1 ng·h/g
same,general clinical signs,"single oral 15 mg/kg, pre- and post-dosing periods",No clinical signs were observed
